{"source": "patent US10479819B2", "about": "(priority 2014, dated 2019)", "key": {"[1]": {"target": "T1, human GLP-1R (Homo sapiens, UniProt P43220)", "T1 construct": "expressed in transfected cells", "T1 sequence (P43220 24-463)": "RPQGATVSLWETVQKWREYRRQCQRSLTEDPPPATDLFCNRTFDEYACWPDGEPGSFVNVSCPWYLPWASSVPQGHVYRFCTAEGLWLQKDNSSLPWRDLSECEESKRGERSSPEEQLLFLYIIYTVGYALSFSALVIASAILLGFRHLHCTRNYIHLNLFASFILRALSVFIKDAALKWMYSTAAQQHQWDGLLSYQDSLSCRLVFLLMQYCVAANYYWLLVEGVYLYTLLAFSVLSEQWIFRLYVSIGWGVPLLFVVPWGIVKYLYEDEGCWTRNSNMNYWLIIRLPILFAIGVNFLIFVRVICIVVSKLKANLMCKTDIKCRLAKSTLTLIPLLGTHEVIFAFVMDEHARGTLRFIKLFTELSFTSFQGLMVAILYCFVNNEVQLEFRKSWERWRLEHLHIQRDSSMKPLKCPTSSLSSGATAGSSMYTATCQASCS", "test": "In vitro activity on GLP-1R, CRE-luciferase HEK-293 cells", "assay_type": "cell-based", "outline": "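HEK-293 cells stably expressing human GLP-1R or human GCGR with CRE-luciferase reporter, 5000 cells/well in DMEM/10% FBS, exposed to compound. Luminescence read after luciferase reagent; EC50 taken from concentration-response curves.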"}, "[2]": {"tested_on": "male C57B1/6J mice", "test": "Oral glucose tolerance test in male C57B1/6J mice", "assay_type": "in vivo", "details": "250 μg/kg"}, "[3]": {"test": "Pharmacokinetic analysis after IV or SC administration in male CD1 mice", "details": "mouse, in vivo", "description": "Pharmacokinetic parameters of the drugs were calculated by methods of model dependence (for data obtained from IV) and model independence (data obtained from SC)."}, "[4]": {"tested_on": "DIO mice", "test": "Body weight reduction in DIO (obese) mice", "assay_type": "in vivo", "details": "250 μg/kg SC daily, day 11 to day 30, DIO mice", "excerpt": "Forty 25-week-old DIO mice (Nanjing University model animal research center) were randomly divided into five groups (compound 4, 5, 6, 7, and normal saline group), 8 in each group, having no difference in the basis weight of each group."}, "[5]": {"target": "T2, human GCGR (Homo sapiens, UniProt P47871)", "T2 construct": "expressed in transfected cells", "T2 sequence (P47871 26-477)": "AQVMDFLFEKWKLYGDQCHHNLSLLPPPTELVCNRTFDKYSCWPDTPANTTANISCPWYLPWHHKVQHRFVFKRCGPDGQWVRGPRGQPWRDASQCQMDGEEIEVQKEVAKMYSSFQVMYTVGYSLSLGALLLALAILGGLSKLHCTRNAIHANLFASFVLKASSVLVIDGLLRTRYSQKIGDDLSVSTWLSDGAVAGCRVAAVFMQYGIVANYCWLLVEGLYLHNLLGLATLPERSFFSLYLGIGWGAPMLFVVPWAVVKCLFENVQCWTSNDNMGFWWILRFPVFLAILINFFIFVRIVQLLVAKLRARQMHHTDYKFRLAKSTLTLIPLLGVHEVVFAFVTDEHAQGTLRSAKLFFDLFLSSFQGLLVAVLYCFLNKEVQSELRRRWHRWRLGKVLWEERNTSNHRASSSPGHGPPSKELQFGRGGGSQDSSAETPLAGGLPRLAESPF", "test": "In vitro activity on GCGR, CRE-luciferase HEK-293 cells", "assay_type": "cell-based", "details": "read-out: GCGR (EC50)", "description": "5000 of HEK-293 cells, which are used in CRE-luciferase system and express human GCGR or GLP-1R stably, were inoculated into 384 well plates according to […] DMEM/10% FBS media/well. […] After incubation, […] of luciferase reagent was added directly to each plate and mixed gently for 2 minutes. The plates were placed into an Elmer Perkin plate reader for reading. Concentration curve of the compound was made by drawing software Prism 5, and the EC50 value was calculated."}}}
{"compound": "CCCCCCCCCCCCCCCC(=O)NCCOCCOCCC(=O)NCCOCCOCCC(=O)NCCCC[C@H](NC(=O)[C@H](CC(=O)O)NC(=O)[C@H](CO)NC(=O)[C@@H](NC(=O)[C@H](Cc1ccccc1)NC(=O)[C@@H](NC(=O)CNC(=O)[C@H](CCC(N)=O)NC(=O)[C@@H](CO)NC(=O)[C@@H](N)Cc1c[nH]cn1)[C@@H](C)O)[C@@H](C)O)C(=O)N[C@@H](CO)C(=O)N[C@@H](CCCCN)C(=O)N[C@@H](Cc1ccc(O)cc1)C(=O)N[C@@H](CC(C)C)C(=O)N[C@@H](CC(=O)O)C(=O)NC(C)(C)C(=O)N[C@@H](CCCNC(=N)N)C(=O)N[C@@H](CCCNC(=N)N)C(=O)N[C@@H](C)C(=O)N[C@@H](CCC(N)=O)C(=O)N[C@@H](CC(=O)O)C(=O)N[C@@H](Cc1ccccc1)C(=O)N[C@H](C(=O)N[C@@H](CCC(N)=O)C(=O)N[C@@H](Cc1c[nH]c2ccccc12)C(=O)N[C@@H](CC(C)C)C(=O)N[C@@H](CCSC)C(=O)N[C@@H](CC(N)=O)C(=O)N[C@H](C(=O)NCC(=O)NCC(=O)N1CCC[C@H]1C(=O)N[C@@H](CO)C(=O)N[C@@H](CO)C(=O)NCC(=O)N[C@@H](C)C(=O)N1CCC[C@H]1C(=O)N1CCC[C@H]1C(=O)N1CCC[C@H]1C(=O)N[C@@H](CO)C(N)=O)[C@@H](C)O)C(C)C", "note": "[Compound 5]", "values": [{"measurement": "GLP-1R/GCGR", "setting": "[1]; ratio of EC50 GLP-1R to EC50 GCGR", "result": 0.1}, {"measurement": "EC50", "setting": "[1]; read-out: GLP-1R (EC50)", "result": 0.06, "unit": "nM"}, {"measurement": "AUC of blood glucose in all four OGTT curve periods (0-480 min) compared with carrier (PBS)", "setting": "[2]; P<0.05", "result": "significantly decreased"}, {"measurement": "effect on oral glucose tolerance", "setting": "[2]; male C57B1/6J mice", "result": "significantly reduced the oral glucose tolerance"}, {"measurement": "clinical adverse effect", "setting": "[3]", "result": "no clinical adverse effect"}, {"measurement": "Tmax", "setting": "[3]; iv", "result": "~12", "unit": "h"}, {"measurement": "half-life", "setting": "[3]; iv", "result": "4 to 6", "unit": "h"}, {"measurement": "peak time", "setting": "[3]; sc", "result": "more than 12 hours"}, {"measurement": "weight loss", "setting": "[4]", "result": "about 20%"}, {"measurement": "body weight compared with normal saline group", "setting": "[4]; P<0.05", "result": "significantly lower"}, {"measurement": "EC50", "setting": "[5]", "result": 0.43, "unit": "nM"}]}
